The values that follow come from patent US7022697B2, “4-(Oxadiazol-3-yl)-1,4-diazabicyclo[3.2.2]-nonane derivatives, preparation and therapeutic use thereof” (Sanofi-aventis, priority 2001, dated 2006).

The structures appear in SMILES notation. Structures can show the parent of a compound that is named as a salt.

Usually melting point stands for the temperature of the solid-liquid transition.

`c1cc(-c2nc(N3CCN4CCC3CC4)no2)ccn1` (as salt: HBr): the melting point lay within 269 to 272 °C.

In turn, `c1cncc(-c2nc(N3CCN4CCC3CC4)no2)c1` (as salt: HBr) yielded a melting point of 260 to 264 °C.

`c1coc(-c2nc(N3CCN4CCC3CC4)no2)c1` (as salt: HBr) came in with a melting point of 249 to 251 °C.

In the case of `C1CNC(c2nc(N3CCN4CCC3CC4)no2)CN1` (stereo not drawn) (as salt: HBr), the melting point was 247 to 248 °C.

Molecule `c1ccc2sc(-c3nc(N4CCN5CCC4CC5)no3)cc2c1` (as salt: HBr) showed a melting point of 258 to 260 °C.

In turn, `c1ccc2c(-c3nc(N4CCN5CCC4CC5)no3)cccc2c1` (as salt: HBr) came in with a melting point of 256 to 258 °C.
